In patent US8227508B2, “Dietary and pharmaceutical compositions containing carnosol and/or rosmanol and their uses” (DSM IP Assets B.V., priority 2006, dated 2012):

Legend:
[1] = molecular target: T1, human serotonin re-uptake transporter (hSERT) (Homo sapiens, UniProt P31645); assay: Serotonin uptake inhibition in HEK-293 cells expressing hSERT; assay type: cell-based; conditions: transfected HEK-293 cells, [3H]-serotonin 20 nM, mean ± s.e.m. (n = 2)
T1 construct: host or cells: HEK-293
Protocol: The cells were routinely grown in Dulbecco's Modified Eagle's Medium (Bioconcept) containing 10% dialysed foetal calf serum (Invitrogen), penicillin, streptomycin, L-glutamine and the antibiotic G418 and passaged by-trypsinisation. On the day of assay, cells from 80% confluent flasks were harvested by gentle washing with warm phosphate buffered saline (PBS). […] Serotonin uptake into the cells was determined by addition of radio-labelled [^3H]-serotonin (GE Healthcare) at a concentration of 20 nM, and incubation for 40 minutes at 37° C. with gentle shaking. At the end of this time unincorporated label was removed by filtration though Unifilter 96 GF/B plates (Perkin Elmer) using a Tomtec Mach III M cell harvester. The incorporated serotonin retained on the plates was quantified by liquid scintillation counting using Microscint-40/Topcount (Perkin Elmer).

[2] = molecular target: T2, monoamine oxidase A (MAO-A) (Homo sapiens, UniProt P21397); assay: Monoamine oxidase A inhibition (p-tyramine substrate, HRP/vanillic acid readout); assay type: biochemical; conditions: mean ± s.e.m., n = 3
T2 sequence (P21397 1-527): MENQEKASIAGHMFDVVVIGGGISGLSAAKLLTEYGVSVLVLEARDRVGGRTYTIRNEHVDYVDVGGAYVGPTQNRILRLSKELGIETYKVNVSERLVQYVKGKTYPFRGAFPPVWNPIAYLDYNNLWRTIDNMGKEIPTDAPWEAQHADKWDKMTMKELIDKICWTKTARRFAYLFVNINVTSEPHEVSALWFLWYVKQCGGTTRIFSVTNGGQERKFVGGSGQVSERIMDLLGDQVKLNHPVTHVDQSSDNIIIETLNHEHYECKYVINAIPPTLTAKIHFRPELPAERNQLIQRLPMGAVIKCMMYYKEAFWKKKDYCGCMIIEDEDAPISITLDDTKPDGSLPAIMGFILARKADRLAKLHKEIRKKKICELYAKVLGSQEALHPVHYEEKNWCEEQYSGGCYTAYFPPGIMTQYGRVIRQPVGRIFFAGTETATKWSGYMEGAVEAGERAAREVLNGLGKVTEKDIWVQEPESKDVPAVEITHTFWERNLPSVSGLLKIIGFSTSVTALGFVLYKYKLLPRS
Protocol: (§1) The organic amines p-tyramine or benzylamine were used as substrates for the monoamine oxidase A (MAO-A) and B (MAO-B) enzymes respectively. The H2O2 produced by this reaction was quantified by reaction with vanillic acid, catalysed by horse radish peroxidase (HRP).
(§2) The reactions were carried out at 37° C. in polystyrene microtitre plates. The MAO enzymes (final concentration 2 U/ml) were mixed with either p-tyramine (Sigma, final concentration 0.5 mM) or benzylamine (Sigma, final concentration 0.5 mM) as appropriate and the chromogenic solution (containing vanillic acid (Fluka), 4-aminoantipyrine (Fluka) and horse radish peroxidase (Sigma), final concentrations 0.25 mM, 0.125 mM and 1 U/ml, respectively) in 0.2 M potassium phosphate buffer, pH 7.6. After 40 min incubation, plates were analysed in a microtitre plate absorbance reader, e.g. Spectramax M5 (Molecular Devices Corporation), at 495 nm.
(§3) The effects of carnosol and rosmanol on the monoamine oxidase enzymes were determined by their inclusion in the assay at a range of concentrations between 0.03 and 100 μM for 10 minutes prior to and during the incubation with substrate. To determine the effect of the compounds on the HRP-catalysed portion of the reaction, the MAO enzyme was replaced by H2O2 (Molecular Probes, final concentration 50 μM). […]

[3] = molecular target: T3, monoamine oxidase B (MAO-B) (Homo sapiens, UniProt P27338); assay: Monoamine oxidase B inhibition (benzylamine substrate, HRP/vanillic acid readout); assay type: biochemical; conditions: mean ± s.e.m., n = 2
T3 sequence (P27338 1-520): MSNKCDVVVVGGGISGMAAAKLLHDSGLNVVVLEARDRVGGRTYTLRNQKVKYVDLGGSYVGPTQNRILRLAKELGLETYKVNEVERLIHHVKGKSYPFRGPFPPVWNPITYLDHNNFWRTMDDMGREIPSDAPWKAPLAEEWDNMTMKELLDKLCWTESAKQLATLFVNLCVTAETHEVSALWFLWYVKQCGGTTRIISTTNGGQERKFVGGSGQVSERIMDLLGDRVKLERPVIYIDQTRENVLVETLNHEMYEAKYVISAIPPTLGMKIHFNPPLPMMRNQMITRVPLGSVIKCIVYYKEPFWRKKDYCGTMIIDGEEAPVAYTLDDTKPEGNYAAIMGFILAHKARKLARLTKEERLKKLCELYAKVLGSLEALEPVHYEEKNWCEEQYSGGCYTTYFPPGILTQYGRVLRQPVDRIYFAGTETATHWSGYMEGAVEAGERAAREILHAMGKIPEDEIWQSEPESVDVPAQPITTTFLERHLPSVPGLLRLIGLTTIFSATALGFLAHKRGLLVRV
Protocol: as §1, §2, §3

[4] = tested on: synaptic markers pCREB, pMAPK, GluR1 in hippocampal slice cultures; assay: Activation of synaptic (LTP) markers in hippocampal slice cultures; assay type: cell-based, Wistar rats; conditions: hippocampal slices, 15 min treatment; for GluR1, percentage of control values: cell surface AMPA receptor 1; for pCREB, relative activation / pMAPK, relative activation: vs buffer-treated sister cultures
Protocol: Seven-day-old Wistar rats were decapitated using a guillotine. In less than 1 minute the skull was opened, the cerebral hemispheres were separated and transferred and both hippocampi were dissected and transferred into ice-cold buffer containing 137 mM NaCl, 5 mM KCl, 0.85 mM Na2HPO4, 1.5 mM CaCl2, 0.66 mM KH2PO4, 0.28 mM MgSO4, 1 mM MgCl2, 2.7 mM NaHCO3, 1 mM Kynurenic acid and 0.6% D-glucose.
Transverse hippocampal slices (400 μm) were prepared using a vibrating blade microtome (VT1200S; Leica Microsystems (Schweiz) AG, Heerbrugg, Switzerland) in the same buffer. Hippocampal slices were individually placed on membrane inserts (Millicell Culture Plate Inserts, 0.4 μm) and cultivated at 35° C., 5% CO2, 95% humidity in a medium containing a 1:1 mixture of BME and MEM (both from Invitrogen) containing 25% heat-inactivated horse serum, 1× GlutaMAX, 1× Penicillin/Streptomycin, 0.6% glucose and 1 mM Kynurenic acid (Stoppini, Buchs and Muller (1991), J. Neurosci. Methods, 37(2), 173-82).
After 48 h in culture, synaptic NMDA receptors were activated by addition of carnosol or rosmanol for 15 min in 140 mM NaCl, 5 mM KCl, 1.3 mM CaCl2, 25 mM HEPES (pH 7.3), 33 mM D-glucose and 0.02 mM bicuculline methiodide. […] An additional positive control comprised the addition of 200 μM glycine to sister cultures. After the treatments, sections were washed and fixed for immunohistochemistry. Markers of enhanced synaptic activity, normally associated with long-term potentiation, representing an ex vivo model of learning and memory were quantitated (see Table 6, below).
Treatment of hippocampal cultures with carnosol and rosmanol induced one or more biochemical markers typical for LTP (pCREB: activated form of the cAMP response element binding protein; pMAPK: activated form of the mitogen-activated protein kinase; GluR1: cell surface presence of AMPA receptor 1).

T1 sequence (P31645 whole entry): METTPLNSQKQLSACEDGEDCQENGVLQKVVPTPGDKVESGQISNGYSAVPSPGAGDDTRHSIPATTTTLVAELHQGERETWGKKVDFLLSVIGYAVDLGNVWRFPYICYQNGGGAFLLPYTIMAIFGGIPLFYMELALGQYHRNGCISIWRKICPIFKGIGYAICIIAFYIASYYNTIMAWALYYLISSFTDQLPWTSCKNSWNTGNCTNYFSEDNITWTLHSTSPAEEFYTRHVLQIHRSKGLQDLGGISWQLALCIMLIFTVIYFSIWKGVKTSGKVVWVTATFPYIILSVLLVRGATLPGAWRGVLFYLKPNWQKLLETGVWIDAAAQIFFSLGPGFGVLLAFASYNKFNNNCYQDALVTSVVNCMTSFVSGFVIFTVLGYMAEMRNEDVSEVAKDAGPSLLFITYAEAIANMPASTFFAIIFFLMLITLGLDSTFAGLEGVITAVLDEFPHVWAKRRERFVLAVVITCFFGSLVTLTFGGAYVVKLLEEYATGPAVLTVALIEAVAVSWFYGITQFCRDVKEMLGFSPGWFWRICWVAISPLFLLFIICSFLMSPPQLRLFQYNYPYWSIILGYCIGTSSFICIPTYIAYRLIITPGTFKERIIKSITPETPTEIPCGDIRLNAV

| Compound | IC50 [1] | IC50 [2] | IC50 [3] | GluR1, percentage of control values [4] | pCREB, relative activation [4] | pMAPK, relative activation [4] |
| --- | --- | --- | --- | --- | --- | --- |
| CC(C)c1cc2c(c(O)c1O)[C@@]13CCCC(C)(C)[C@@H]1C[C@@H]2OC3=O [Carnosol, carnosol] | 26.6 ± 6.9 µM | 4 ± 0.1 µM | 107 ± 19.9 µM | 608% | ± | ++ |
| CC(C)c1cc2c(c(O)c1O)[C@@]13CCCC(C)(C)[C@@H]1[C@H](OC3=O)[C@H]2O [Rosmanol, rosmanol] | 23.2 ± 9.7 µM | 3.02 ± 0.48 µM | 73.3 ± 11.3 µM | 320% | ± | + |
